Reference: ChEMBL document CHEMBL1147072, “Synthesis and evaluation of transthyretin amyloidosis inhibitors containing carborane pharmacophores” (Proc Natl Acad Sci U S A, 2007)

How the values were obtained:
Transthyretin [1] = molecular target: T1, Transthyretin (Homo sapiens, UniProt P02766); experiment: Inhibition of human transthyretin assessed as amyloid fibril formation at pH 4.4 after 72 hrs relative to control; set-up: scale not given: the % may be the effect or the level left
Transthyretin [2] = molecular target: T1, Transthyretin; experiment: Inhibition of human transthyretin fibril formation at pH 4.4 after 72 hrs

O=C(O)c1ccccc1Nc1cccc(C(F)(F)F)c1 [FLUFENAMIC ACID]
Activity (Transthyretin [1]): 14%
IC50 (Transthyretin [2]): 2900 nM
